Common to all, as to experiment: Post-emergence efficacy, glasshouse spray test
Common to all, as to assay type: in vivo

Experiment [1] concerns Amaranthus palmeri (AMAPA). The settings on record: Application Rate 500 g/Ha, evaluated after 13 days; for pest or weed control at 500 g/ha: Amaranthus palmeri, post-emergence, 312 h, read-out: Control of weed species after post-emergence application, AMAPA (100=total damage to plant; 0=no damage to plant). A digest of the protocol:
(§1)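 Spray solution: compound dissolved in acetone and IF50 emulsifier/solvent mix to 50 g/l stock, then diluted to test concentration in 0.25% or 1% sodium lauryl ether sulphate + 1% ammonium sulphate. Applied post-emergence to 14-day plants; injury scored 0–100 after 13 days.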

Experiment [2] deals with Chenopodium album (CHEAL). The settings on record: Application Rate 500 g/Ha, evaluated after 13 days; for pest or weed control at 500 g/ha: Chenopodium album, post-emergence, 312 h, read-out: Control of weed species after post-emergence application, CHEAL (100=total damage to plant; 0=no damage to plant). A digest of the protocol:
as §1

The test system of experiment [3] is Digitaria sanguinalis (DIGSA). The settings on record: Application Rate 500 g/Ha, evaluated after 13 days; for pest or weed control at 500 g/ha: Digitaria sanguinalis, post-emergence, 312 h, read-out: Control of weed species after post-emergence application, DIGSA (100=total damage to plant; 0=no damage to plant). A digest of the protocol: as §1
Experiment [4] has as its system Echinochloa crus-galli (ECHCG). To be noted: Application Rate 500 g/Ha, evaluated after 13 days; for pest or weed control at 500 g/ha: Echinochloa crus-galli, post-emergence, 312 h, read-out: Control of weed species after post-emergence application, ECHCG (100=total damage to plant; 0=no damage to plant). A digest of the protocol:
as §1

The test system of experiment [5] is Eleusine indica (ELEIN). To be noted: Application Rate 500 g/Ha, evaluated after 13 days; for pest or weed control at 500 g/ha: Eleusine indica, post-emergence, 312 h, read-out: Control of weed species after post-emergence application, ELEIN (100=total damage to plant; 0=no damage to plant). A digest of the protocol:
as §1

In experiment [6] the test system is Euphorbia heterophylla (EPHHL). To be noted: Application Rate 500 g/Ha, evaluated after 13 days; for pest or weed control at 500 g/ha: Euphorbia heterophylla, post-emergence, 312 h, read-out: Control of weed species after post-emergence application, EPHHL (100=total damage to plant; 0=no damage to plant). A digest of the protocol: as §1
Experiment [7] concerns Ipomoea hederacea (IPOHE). To be noted: Application Rate 500 g/Ha, evaluated after 13 days; for pest or weed control at 500 g/ha: Ipomoea hederacea, post-emergence, 312 h, read-out: Control of weed species after post-emergence application, IPOHE (100=total damage to plant; 0=no damage to plant). A digest of the protocol: as §1
In experiment [8] the test system is Lolium perenne (LOLPE). The settings on record: Application Rate 500 g/Ha, evaluated after 13 days; for pest or weed control at 500 g/ha: Lolium perenne, post-emergence, 312 h, read-out: Control of weed species after post-emergence application, LOLPE (100=total damage to plant; 0=no damage to plant). A digest of the protocol: as §1
The subject of experiment [9] is Setaia fabei (SETFA). The settings on record: Application Rate 500 g/Ha, evaluated after 13 days; for pest or weed control at 500 g/ha: Setaria faberi, post-emergence, 312 h, read-out: Control of weed species after post-emergence application, SETFA (100=total damage to plant; 0=no damage to plant). A digest of the protocol:
as §1

`CNC(=O)c1coc(-c2cc[n+](CCS(=O)(=O)O)nc2)n1` [Compound A125]: the “Control of weed species after post-emergence application, AMAPA (100=total damage to plant; 0=no damage to plant)” value in [1] is listed as 30. Besides, the “Control of weed species after post-emergence application, CHEAL (100=total damage to plant; 0=no damage to plant)” value in experiment [2] is given as 10. The “Control of weed species after post-emergence application, DIGSA (100=total damage to plant; 0=no damage to plant)” value in experiment [3] is listed as 60. The “Control of weed species after post-emergence application, ECHCG (100=total damage to plant; 0=no damage to plant)” value in [4] came out at 60. Further, in experiment [5], the “Control of weed species after post-emergence application, ELEIN (100=total damage to plant; 0=no damage to plant)” value is recorded as 40. The “Control of weed species after post-emergence application, EPHHL (100=total damage to plant; 0=no damage to plant)” value in experiment [6] amounted to 40. The “Control of weed species after post-emergence application, IPOHE (100=total damage to plant; 0=no damage to plant)” value in [7] came to 10. Also, the “Control of weed species after post-emergence application, LOLPE (100=total damage to plant; 0=no damage to plant)” value in experiment [8] was 40. For the same compound, the “Control of weed species after post-emergence application, SETFA (100=total damage to plant; 0=no damage to plant)” value in experiment [9] was found to be 70.
With `CCOC(=O)c1coc(-c2cc[n+](CCS(=O)(=O)O)nc2)n1` [Compound A124], the “Control of weed species after post-emergence application, AMAPA (100=total damage to plant; 0=no damage to plant)” value in experiment [1] came to 90. For the same compound, the “Control of weed species after post-emergence application, CHEAL (100=total damage to plant; 0=no damage to plant)” value in [2] was 30. Besides, in experiment [3], the “Control of weed species after post-emergence application, DIGSA (100=total damage to plant; 0=no damage to plant)” value was determined as 90. Further, the “Control of weed species after post-emergence application, ECHCG (100=total damage to plant; 0=no damage to plant)” value in experiment [4] is reported as 40. In addition, the “Control of weed species after post-emergence application, ELEIN (100=total damage to plant; 0=no damage to plant)” value in experiment [5] was determined as 80. The “Control of weed species after post-emergence application, EPHHL (100=total damage to plant; 0=no damage to plant)” value in experiment [6] was found to be 90. In addition, the “Control of weed species after post-emergence application, IPOHE (100=total damage to plant; 0=no damage to plant)” value in experiment [7] is 40. The “Control of weed species after post-emergence application, LOLPE (100=total damage to plant; 0=no damage to plant)” value in experiment [8] was 40. In addition, the “Control of weed species after post-emergence application, SETFA (100=total damage to plant; 0=no damage to plant)” value in [9] worked out at 70.
Consider `O=C(O)CC[n+]1ccc(-c2ccno2)cn1` [Compound A96], for which the pest or weed control at 500 g/ha is 100% in [1]; 90% in experiment [2]; 40% in experiment [3]; 30% in experiment [4]; 80% in experiment [5]; 100% in experiment [6]. Also, the pest or weed control at 500 g/ha turned out to be 80% in experiment [7], 70% in [8] and 80% in experiment [9].
In the case of `CC(C(=O)O)[n+]1ccc(-c2ncco2)cn1` (stereo not drawn) [Compound A90], the pest or weed control at 500 g/ha worked out at 20% in experiment [1]; 20% in experiment [2]; 10% in experiment [3]; 10% in experiment [4]; 10% in experiment [5]; 20% in experiment [6]. Also, the pest or weed control at 500 g/ha in [7] came to 10%; in [8] it was 0%; in [9], 10%.
As for `O=C(O)CC[n+]1ccc(-c2cncs2)cn1` [Compound A122], the pest or weed control at 500 g/ha turned out to be 90% in experiment [1]; 0% in experiment [2]; 90% in experiment [3]; 30% in [4]; 70% in experiment [5]; 70% in experiment [6]. In addition, the pest or weed control at 500 g/ha in experiment [7] stood at 30%; in [8], 20%; in [9], 50%.
As to `COC(=O)C[n+]1ccc(-c2ncn(C)n2)cn1` [Compound A87], the pest or weed control at 500 g/ha in experiment [1] is 80%; in experiment [2], 20%; in experiment [3] it was 90%; in experiment [4], 50%; in experiment [5] it was 80%; in experiment [6], 80%. For the same compound, the pest or weed control at 500 g/ha in experiment [7] came out at 10%; in experiment [8] it was 0%; in experiment [9], 40%.
`CCOC(=O)c1oc(-c2cc[n+](CCC(=O)O)nc2)nc1C` [Compound A130]: the pest or weed control at 500 g/ha in experiment [1] came to 100%; in experiment [2], 50%; in [3] it was 60%; in experiment [4], 60%; in experiment [5] it was 80%; in [6] it was 100%. Besides, the figures for the pest or weed control at 500 g/ha in experiment [7], in [8] and in experiment [9] were 50%, 50% and 30%, respectively.
As to `Cn1nncc1-c1cc[n+](CCS(=O)(=O)[O-])nc1` [Compound A49], the pest or weed control at 500 g/ha was determined as 100% in experiment [1]; 100% in experiment [2]; 70% in experiment [3]; 60% in experiment [4]; 60% in [5]; 90% in experiment [6]. Further, the pest or weed control at 500 g/ha in [7] stood at 70%; in experiment [8], 40%; in experiment [9] it was 60%.
For the compound `O=S(=O)([O-])OCC[n+]1ccc(-c2ncco2)cn1` [Compound A67], the pest or weed control at 500 g/ha came out at 100% in [1]; 80% in experiment [2]; 90% in [3]; 70% in experiment [4]; 90% in [5]; 80% in experiment [6]. Further, the pest or weed control at 500 g/ha was found to be 80% in experiment [7], 60% in [8] and 80% in [9].
For `Cc1coc(-c2cc[n+](CCS(=O)(=O)[O-])nc2)n1` [Compound A40], the pest or weed control at 500 g/ha in experiment [1] was found to be 100%; in experiment [2] it was 100%; in experiment [3] it was 80%; in experiment [4] it was 80%; in [5], 100%; in experiment [6], 100%. The pest or weed control at 500 g/ha in [7] was 90%; in experiment [8] it was 80%; in experiment [9], 80%.
As to `COC(=O)CC[n+]1ccc(-c2nccs2)cn1` [Compound A112], the pest or weed control at 500 g/ha in [1] came out at 50%; in [2], 60%; in experiment [3], 90%; in [4] it was 50%; in experiment [5] it was 90%; in experiment [6], 50%. For the same compound, the pest or weed control at 500 g/ha in experiment [7] was 20%; in experiment [8] it was 30%; in [9], 60%.
Turning to `COC(=O)CCC[n+]1ccc(-c2ncn(C)n2)cn1` [Compound A121], the pest or weed control at 500 g/ha is 30% in [1]; 10% in [2]; 60% in experiment [3]; 100% in experiment [4]; 50% in experiment [5]; 40% in experiment [6]. Also, the pest or weed control at 500 g/ha in [7] was 10%; in experiment [8] it was 10%; in [9], 40%.
In the case of `CC(CNS(=O)(=O)[O-])[n+]1ccc(-c2ncco2)cn1` (stereo not drawn) [Compound A83], the pest or weed control at 500 g/ha in experiment [1] came to 100%; in experiment [2], 70%; in [3], 60%; in experiment [4], 60%; in experiment [5] it was 70%; in experiment [6], 70%. For the same compound, the values for the pest or weed control at 500 g/ha in [7], in experiment [8] and in experiment [9] were 40%, 50% and 60%, respectively.
Turning to `Cc1nnc(-c2cc[n+](CCC(=O)O)nc2)s1` [Compound A98], the pest or weed control at 500 g/ha worked out at 100% in [1]; 90% in experiment [2]; 90% in experiment [3]; 70% in experiment [4]; 80% in experiment [5]; 90% in [6]. Further, the pest or weed control at 500 g/ha in experiment [7] stood at 40%; in experiment [8] it was 80%; in experiment [9], 100%.

Source of the values: patent US20210053957A1, “HERBICIDAL COMPOUNDS” (SYNGENTA PARTICIPATIONS AG, priority 2018, published 2021).
